Test results reported in patent US11540518B2, “Fungicidal oxadiazoles” (FMC Corporation, priority 2017, dated 2023).

tested on: Phakopsora pachyrhizi; assay: Test A: Asian soybean rust control on soybean seedlings; assay type: in vivo; details: 10 ppm, sprayed to run-off on soybean seedlings, inoculated the following day; 100 = 100% disease control, 0 = no control
Source text: General protocol for preparing test suspensions for Tests A-C: the test compounds were first dissolved in acetone in an amount equal to 3% of the final volume and then suspended at the desired concentration (in ppm) in acetone and purified water (50/50 mix by volume) containing 250 ppm of the surfactant PEG400 (polyhydric alcohol esters). The resulting test suspensions were then used in Tests A-C.
The test solution was sprayed to the point of run-off on soybean seedlings. The following day the seedlings were inoculated with a spore suspension of Phakopsora pachyrhizi (the causal agent of Asian soybean rust) and incubated in a saturated atmosphere at 22° C. for 24 h, and then moved to a growth chamber at 22° C. for 8 days, after which time visual disease ratings were made.
Results for Tests A-C are given in Table A. In the Table, a rating of 100 indicates 100% disease control and a rating of 0 indicates no disease control (relative to the controls). A dash (-) indicates the compound was not tested.

SMILES	Test A disease control rating [%]
CC#CCNC(=O)OCc1ccc(-c2noc(C(F)(F)F)n2)cc1 [Compound 36]	100
C#CCNC(=O)OCc1ccc(-c2noc(C(F)(F)F)n2)o1 [Compound 81]	0
COC(=O)NN=C(C)c1ccc(-c2noc(C(F)(F)F)n2)cc1 [Compound 108]	92
CNC(=O)OC(C)c1ccc(-c2noc(C(F)(F)F)n2)cc1 (stereo not drawn) [Compound 71]	100
O=C(NC1CC1)OCc1ccc(-c2noc(C(F)(F)F)n2)cc1 [Compound 54]	100
CCOC(=O)c1ccc(CNC(=O)OC(C)c2ccc(-c3noc(C(F)(F)F)n3)cc2)cc1 (racemic) [Compound 27]	100
CC(OC(=O)n1ccnc1)c1ccc(-c2noc(C(F)(F)F)n2)cc1 (stereo not drawn) [Compound 70]	99
C=CCNC(=O)OCCCc1ccc(-c2noc(C(F)(F)F)n2)cc1 [Compound 29]	100
CONC(=O)OCc1ccc(-c2noc(C(F)(F)F)n2)cc1 [Compound 136]	79
CCOC(=O)NN=Cc1ccc(-c2noc(C(F)(F)F)n2)cc1 [Compound 107]	100
N#CCNC(=O)OCc1ccc(-c2noc(C(F)(F)F)n2)cc1 [Compound 55]	100
CCN(C)C(=O)OCc1ccc(-c2noc(C(F)(F)F)n2)cc1 [Compound 52]	100
CN(C)C(=O)OCCc1ccc(-c2noc(C(F)(F)F)n2)cc1 [Compound 44]	100
COCCNC(=O)OC(c1ccccc1)c1ccc(-c2noc(C(F)(F)F)n2)cc1 (stereo not drawn) [Compound 122]	100
NC(=O)OCc1ccc(-c2noc(C(F)(F)F)n2)o1 [Compound 80]	0
CCNC(=O)OC(C)c1ccc(-c2noc(C(F)(F)F)n2)cc1 (racemic) [Compound 19]	100
CCCNC(=O)OC(C)c1ccc(-c2noc(C(F)(F)F)n2)cc1 (stereo not drawn) [Compound 73]	100
CNC(=O)OCCCc1ccc(-c2noc(C(F)(F)F)n2)cc1 [Compound 31]	100
CCOC(=O)c1ccc(CNC(=O)OCc2ccc(-c3noc(C(F)(F)F)n3)cc2)cc1 [Compound 26]	95
C#CCNC(=O)OCCc1ccc(-c2noc(C(F)(F)F)n2)cc1 [Compound 45]	100
CCOC(=O)c1ccc(NC(=O)OCc2ccc(-c3noc(C(F)(F)F)n3)cc2)cc1 [Compound 57]	100
CC(OC(N)=O)c1ccc(-c2noc(C(F)(F)F)n2)cc1 (stereo not drawn) [Compound 84]	100
CCNC(=O)OCCCc1ccc(-c2noc(C(F)(F)F)n2)cc1 [Compound 20]	100
COC(=O)c1ccc(CNC(=O)OCc2ccc(-c3noc(C(F)(F)F)n3)cc2)cc1 [Compound 24]	13
Cc1ccccc1C(OC(=O)n1ccnc1)c1ccc(-c2noc(C(F)(F)F)n2)cc1 (stereo not drawn) [Compound 142]	98

same assay, conditions: 50 ppm, sprayed to run-off on soybean seedlings, inoculated the following day; 100 = 100% disease control, 0 = no control

SMILES	Test A disease control rating [%]
CCOC(=O)c1ccc(NC(=O)OC(C)c2ccc(-c3noc(C(F)(F)F)n3)cc2)cc1 (stereo not drawn) [Compound 58]	100
O=C(Nc1cccnc1)OCCc1ccc(-c2noc(C(F)(F)F)n2)cc1 [Compound 34]	100
O=C(Nc1cccnc1)OCCCc1ccc(-c2noc(C(F)(F)F)n2)cc1 [Compound 35]	100
CCOC(=O)c1ccc(NC(=O)OCCc2ccc(-c3noc(C(F)(F)F)n3)cc2)cc1 [Compound 59]	96
O=C(OCCCc1ccc(-c2noc(C(F)(F)F)n2)cc1)n1ccnc1 [Compound 21]	100
CC#CCNC(=O)OCCc1ccc(-c2noc(C(F)(F)F)n2)cc1 [Compound 63]	100
CC#CCNC(=O)OC(C)c1ccc(-c2noc(C(F)(F)F)n2)cc1 (stereo not drawn) [Compound 62]	100
CCOC(=O)c1ccc(CNC(=O)OCCc2ccc(-c3noc(C(F)(F)F)n3)cc2)cc1 [Compound 68]	99
COC(=O)c1ccc(NC(=O)OCCCc2ccc(-c3noc(C(F)(F)F)n3)cc2)cc1 [Compound 50]	0
CC#CCNC(=O)OCCCc1ccc(-c2noc(C(F)(F)F)n2)cc1 [Compound 64]	100
CCOC(=O)c1ccc(CNC(=O)OCCCc2ccc(-c3noc(C(F)(F)F)n3)cc2)cc1 [Compound 69]	100
C#CCNC(=O)OCc1ccc(-c2noc(C(F)(F)F)n2)s1 [Compound 37]	100
COC(=O)c1ccc(NC(=O)OC(C)c2ccc(-c3noc(C(F)(F)F)n3)cc2)cc1 (stereo not drawn) [Compound 48]	100
COC(=O)c1ccc(NC(=O)OCc2ccc(-c3noc(C(F)(F)F)n3)cc2)cc1 [Compound 47]	100
CN(N=Cc1ccc(-c2noc(C(F)(F)F)n2)cc1)C(=O)OC(C)(C)C [Compound 109]	100
C#CCCNC(=O)OC(C)c1ccc(-c2noc(C(F)(F)F)n2)cc1 (stereo not drawn) [Compound 67]	100
COc1ccc(C(OC(=O)n2ccnc2)c2ccc(-c3noc(C(F)(F)F)n3)cc2)cc1 (stereo not drawn) [Compound 83]	100
COC(=O)c1ccc(NC(=O)OCCc2ccc(-c3noc(C(F)(F)F)n3)cc2)cc1 [Compound 49]	96
C#CCCNC(=O)OCCCc1ccc(-c2noc(C(F)(F)F)n2)cc1 [Compound 65]	100

same assay, conditions: 250 ppm, sprayed to run-off on soybean seedlings, inoculated the following day; 100 = 100% disease control, 0 = no control

SMILES	Test A disease control rating [%]
C#CCNC(=O)OC(c1ccccc1)c1ccc(-c2noc(C(F)(F)F)n2)cc1 (stereo not drawn) [Compound 118]	100
C#CCCNC(=O)OC(c1ccccc1)c1ccc(-c2noc(C(F)(F)F)n2)cc1 (stereo not drawn) [Compound 120]	100

same assay, conditions: Phakopsora pachyrhizi, 216 h; 10 ppm, sprayed to run-off on soybean seedlings, inoculated the following day; 100 = 100% disease control, 0 = no control; read-out: Test A disease control rating

SMILES	pest or weed control at 10 ppm [%]
CC(OC(=O)Nc1cccnc1)c1ccc(-c2noc(C(F)(F)F)n2)cc1 (stereo not drawn) [Compound 23, 1-[4-[5-(trifluoromethyl)-1,2,4-oxadiazol-3-yl]phenyl]ethyl N-3-pyridinylcarbamate]	100
O=C(OCCc1ccc(-c2noc(C(F)(F)F)n2)cc1)n1ccnc1 [Compound 40, 2-[4-[5-(trifluoromethyl)-1,2,4-oxadiazol-3-yl]phenyl]ethyl-1H-imidazole-1-carboxylate]	0

tested on: Puccinia recondita f. sp. tritici; assay: Test C: wheat leaf rust control on wheat seedlings; assay type: in vivo; details: 10 ppm, sprayed to run-off on wheat seedlings, inoculated the following day; 100 = 100% disease control, 0 = no control
Source text: General protocol for preparing test suspensions for Tests A-C: the test compounds were first dissolved in acetone in an amount equal to 3% of the final volume and then suspended at the desired concentration (in ppm) in acetone and purified water (50/50 mix by volume) containing 250 ppm of the surfactant PEG400 (polyhydric alcohol esters). The resulting test suspensions were then used in Tests A-C. The test solution was sprayed to the point of run-off on wheat seedlings. The following day the seedlings were inoculated with a spore suspension of Puccinia recondita f. sp. tritici (the causal agent of wheat leaf rust) and incubated in a saturated atmosphere at 20° C. for 24 h, and then moved to a growth chamber at 20° C. for 6 days, after which time disease ratings were made. Results for Tests A-C are given in Table A. In the Table, a rating of 100 indicates 100% disease control and a rating of 0 indicates no disease control (relative to the controls). A dash (-) indicates the compound was not tested.

SMILES	Test C disease control rating [%]
CC#CCNC(=O)OCc1ccc(-c2noc(C(F)(F)F)n2)cc1 [Compound 36]	100
C#CCNC(=O)OCc1ccc(-c2noc(C(F)(F)F)n2)o1 [Compound 81]	45
COC(=O)NN=C(C)c1ccc(-c2noc(C(F)(F)F)n2)cc1 [Compound 108]	89
CNC(=O)OC(C)c1ccc(-c2noc(C(F)(F)F)n2)cc1 (stereo not drawn) [Compound 71]	83
O=C(NC1CC1)OCc1ccc(-c2noc(C(F)(F)F)n2)cc1 [Compound 54]	92
CCOC(=O)c1ccc(CNC(=O)OC(C)c2ccc(-c3noc(C(F)(F)F)n3)cc2)cc1 (racemic) [Compound 27]	0
CC(OC(=O)n1ccnc1)c1ccc(-c2noc(C(F)(F)F)n2)cc1 (stereo not drawn) [Compound 70]	68
C=CCNC(=O)OCCCc1ccc(-c2noc(C(F)(F)F)n2)cc1 [Compound 29]	74
CONC(=O)OCc1ccc(-c2noc(C(F)(F)F)n2)cc1 [Compound 136]	0
CCOC(=O)NN=Cc1ccc(-c2noc(C(F)(F)F)n2)cc1 [Compound 107]	99
N#CCNC(=O)OCc1ccc(-c2noc(C(F)(F)F)n2)cc1 [Compound 55]	86
CCN(C)C(=O)OCc1ccc(-c2noc(C(F)(F)F)n2)cc1 [Compound 52]	68
CN(C)C(=O)OCCc1ccc(-c2noc(C(F)(F)F)n2)cc1 [Compound 44]	41
COCCNC(=O)OC(c1ccccc1)c1ccc(-c2noc(C(F)(F)F)n2)cc1 (stereo not drawn) [Compound 122]	89
NC(=O)OCc1ccc(-c2noc(C(F)(F)F)n2)o1 [Compound 80]	0
CCNC(=O)OC(C)c1ccc(-c2noc(C(F)(F)F)n2)cc1 (racemic) [Compound 19]	74
CCCNC(=O)OC(C)c1ccc(-c2noc(C(F)(F)F)n2)cc1 (stereo not drawn) [Compound 73]	68
CNC(=O)OCCCc1ccc(-c2noc(C(F)(F)F)n2)cc1 [Compound 31]	99
CCOC(=O)c1ccc(CNC(=O)OCc2ccc(-c3noc(C(F)(F)F)n3)cc2)cc1 [Compound 26]	26
C#CCNC(=O)OCCc1ccc(-c2noc(C(F)(F)F)n2)cc1 [Compound 45]	93
CCOC(=O)c1ccc(NC(=O)OCc2ccc(-c3noc(C(F)(F)F)n3)cc2)cc1 [Compound 57]	0
CC(OC(N)=O)c1ccc(-c2noc(C(F)(F)F)n2)cc1 (stereo not drawn) [Compound 84]	100
CCNC(=O)OCCCc1ccc(-c2noc(C(F)(F)F)n2)cc1 [Compound 20]	99
COC(=O)c1ccc(CNC(=O)OCc2ccc(-c3noc(C(F)(F)F)n3)cc2)cc1 [Compound 24]	68
Cc1ccccc1C(OC(=O)n1ccnc1)c1ccc(-c2noc(C(F)(F)F)n2)cc1 (stereo not drawn) [Compound 142]	0

same assay, conditions: 50 ppm, sprayed to run-off on wheat seedlings, inoculated the following day; 100 = 100% disease control, 0 = no control

SMILES	Test C disease control rating [%]
CCOC(=O)c1ccc(NC(=O)OC(C)c2ccc(-c3noc(C(F)(F)F)n3)cc2)cc1 (stereo not drawn) [Compound 58]	79
O=C(Nc1cccnc1)OCCc1ccc(-c2noc(C(F)(F)F)n2)cc1 [Compound 34]	98
O=C(Nc1cccnc1)OCCCc1ccc(-c2noc(C(F)(F)F)n2)cc1 [Compound 35]	100
CCOC(=O)c1ccc(NC(=O)OCCc2ccc(-c3noc(C(F)(F)F)n3)cc2)cc1 [Compound 59]	0
O=C(OCCCc1ccc(-c2noc(C(F)(F)F)n2)cc1)n1ccnc1 [Compound 21]	99
CC#CCNC(=O)OCCc1ccc(-c2noc(C(F)(F)F)n2)cc1 [Compound 63]	100
CC#CCNC(=O)OC(C)c1ccc(-c2noc(C(F)(F)F)n2)cc1 (stereo not drawn) [Compound 62]	100
CCOC(=O)c1ccc(CNC(=O)OCCc2ccc(-c3noc(C(F)(F)F)n3)cc2)cc1 [Compound 68]	0
COC(=O)c1ccc(NC(=O)OCCCc2ccc(-c3noc(C(F)(F)F)n3)cc2)cc1 [Compound 50]	0
CC#CCNC(=O)OCCCc1ccc(-c2noc(C(F)(F)F)n2)cc1 [Compound 64]	100
CCOC(=O)c1ccc(CNC(=O)OCCCc2ccc(-c3noc(C(F)(F)F)n3)cc2)cc1 [Compound 69]	0
C#CCNC(=O)OCc1ccc(-c2noc(C(F)(F)F)n2)s1 [Compound 37]	100
COC(=O)c1ccc(NC(=O)OC(C)c2ccc(-c3noc(C(F)(F)F)n3)cc2)cc1 (stereo not drawn) [Compound 48]	97
COC(=O)c1ccc(NC(=O)OCc2ccc(-c3noc(C(F)(F)F)n3)cc2)cc1 [Compound 47]	41
CN(N=Cc1ccc(-c2noc(C(F)(F)F)n2)cc1)C(=O)OC(C)(C)C [Compound 109]	95
C#CCCNC(=O)OC(C)c1ccc(-c2noc(C(F)(F)F)n2)cc1 (stereo not drawn) [Compound 67]	100
COc1ccc(C(OC(=O)n2ccnc2)c2ccc(-c3noc(C(F)(F)F)n3)cc2)cc1 (stereo not drawn) [Compound 83]	100
COC(=O)c1ccc(NC(=O)OCCc2ccc(-c3noc(C(F)(F)F)n3)cc2)cc1 [Compound 49]	0
C#CCCNC(=O)OCCCc1ccc(-c2noc(C(F)(F)F)n2)cc1 [Compound 65]	100

same assay, conditions: 250 ppm, sprayed to run-off on wheat seedlings, inoculated the following day; 100 = 100% disease control, 0 = no control

SMILES	Test C disease control rating [%]
C#CCNC(=O)OC(c1ccccc1)c1ccc(-c2noc(C(F)(F)F)n2)cc1 (stereo not drawn) [Compound 118]	100
C#CCCNC(=O)OC(c1ccccc1)c1ccc(-c2noc(C(F)(F)F)n2)cc1 (stereo not drawn) [Compound 120]	100

same assay, conditions: Puccinia recondita, 168 h; 10 ppm, sprayed to run-off on wheat seedlings, inoculated the following day; 100 = 100% disease control, 0 = no control; read-out: Test C disease control rating

SMILES	pest or weed control at 10 ppm [%]
CC(OC(=O)Nc1cccnc1)c1ccc(-c2noc(C(F)(F)F)n2)cc1 (stereo not drawn) [Compound 23, 1-[4-[5-(trifluoromethyl)-1,2,4-oxadiazol-3-yl]phenyl]ethyl N-3-pyridinylcarbamate]	97
O=C(OCCc1ccc(-c2noc(C(F)(F)F)n2)cc1)n1ccnc1 [Compound 40, 2-[4-[5-(trifluoromethyl)-1,2,4-oxadiazol-3-yl]phenyl]ethyl-1H-imidazole-1-carboxylate]	18
